Measured values reported in US20100237530A1, “COMPRESSED PREPARATION” (Daiichi Sankyo Company, Limited, priority 2006, published 2010).

Assay: Dissolution Test (Paddle Method), Method 2 of the Japanese Pharmacopoeia 14th Revised Edition
Format: physicochemical
Details: dissolution rate of olmesartan medoxomil, paddle 50 revolutions per minute, 900 mL JP-2, absorptiometry, average of two tablets
Procedure: Dissolution properties were measured for the drug products as obtained in the Examples and Comparative Examples by the following method, and the results are shown in the Table.
Testing was carried out in accordance with Method 2 of the Dissolution Test (Paddle Method) described in the 14th Revised Edition of the Japanese Pharmacopoeia, at the paddle revolution speed of 50 revolutions per minute and using 900 mL of Japanese Pharmacopoeia Solution 2 (JP-2) for the test solution. The test solution was sampled at 30 minutes and 60 minutes after the start of testing, and the dissolution rate of olmesartan medoxomil was measured by absorptiometry. [Toyama Sangyo Co., Ltd.: DISSOLUTION TESTER NTR-6000, Shimadzu Corporation: SPECTROPHOTOMETER UV-1600] Tests were carried out for two tablets, and average values are shown.

CCCc1nc(C(C)(C)O)c(C(=O)OCc2oc(=O)oc2C)n1Cc1ccc(-c2ccccc2-c2nnn[nH]2)cc1 [Comparative Example C-3, Olmesartan medoxomil]
Dissolution rate (%) After 30 minutes (sampled at 30 minutes): 60.0%
Dissolution rate (%) After 60 minutes (sampled at 60 minutes): 68.4%
